As a reminder, the Km is the concentration of substrate that gives half-maximal velocity. The kcat/Km is the second-order rate constant that governs catalysis at low substrate concentration.

Active and inactive are the calls of the source. The rule behind the calls is not given here.

The values below come from ChEMBL document CHEMBL1154494, “A highly sensitive fluorogenic probe for cytochrome P450 activity in live cells” (Bioorg Med Chem Lett, 2008).

Data set [1] deals with A549. In words: Induction of CYP1A1 level in human A549 cells at 10 uM after 1 hr using Hoechst staining by fluorogenic assay in presence of CYP1A1 inducer TCDD. In kind it is functional, cell-based.
The test system of data set [2] is A549. In words: Inhibition of CYP1A1 level in human A549 cells at 10 uM after 1 hr using Hoechst staining by fluorogenic assay in presence of CYP1A1 inducer TCDD and CYP1A1 inhibitior resveratrol. In kind it is functional, cell-based.
Data set [3] has as its system A549. In words: Induction of CYP1A1 level in human A549 cells at 10 uM after 1 hr using Hoechst staining by fluorogenic assay. In kind it is functional, cell-based.
Substrate in data set [4]: CCOc1cc(C)cc(C)c1C(C)(C)CC(=O)Nc1ccc2c(c1)Oc1cc(NC(=O)N3CCOCC3)ccc1C21Oc2ccccc2C1=O
In words: Activity of human CYP1A1 by fluorogenic assay. In kind it is ADME.

For `CCOc1cc(C)cc(C)c1C(C)(C)CC(=O)Nc1ccc2c(c1)Oc1cc(NC(=O)N3CCOCC3)ccc1C21OC(=O)c2ccccc21` (stereo not given), the result with A549 [1], in the data set on A549 [2] and in the data set on A549 [3] was Active.

B1: Cytochrome P450 1A1 (Homo sapiens) (protein)
chain: MLFPISMSATEFLLASVIFCLVFWVIRASRPQVPKGLKNPPGPWGWPLIGHMLTLGKNPHLALSRMSQQYGDVLQIRIGSTPVVVLSGLDTIRQALVRQGDDFKGRPDLYTFTLISNGQSMSFSPDSGPVWAARRRLAQNGLKSFSIASDPASSTSCYLEEHVSKEAEVLISTLQELMAGPGHFNPYRYVVVSVTNVICAICFGRRYDHNHQELLSLVNLNNNFGEVVGSGNPADFIPILRYLPNPSLNAFKDLNEKFYSFMQKMVKEHYKTFEKGHIRDITDSLIEHCQEKQLDENANVQLSDEKIINIVLDLFGAGFDTVTTAISWSLMYLVMNPRVQRKIQEELDTVIGRSRRPRLSDRSHLPYMEAFILETFRHSSFVPFTIPHSTTRDTSLKGFYIPKGRCVFVNQWQINHDQKLWVNPSEFLPERFLTPDGAIDKVLSEKVIIFGMGKRKCIGETIARWEVFLFLAILLQRVEFSVPLGVKVDMTPIYGLTMKHACCEHFQMQLRS
For B1, in data set [4], the Km was 0.09 µM and the kcat/Km is 8800 M⁻¹ s⁻¹.
